Tests used:
[1] = molecular target: human Nav1.7 (Homo sapiens (Human), UniProt Q15858); assay: FLIPR or FLIPR TETRA sodium dye assay with KCl and test article pre-incubation; assay type: cell-based; settings: sodium dye assay with KCl; recombinant human Nav1.7 in HEK293 cells; value ± SEM
Description: For dominant selection of the Nav1.7-expressing clones, the expression plasmid co-expressed the neomycin resistance gene. […] Recombinant beta and gamma subunits were not introduced into this cell line. Additional cell lines expressing recombinant Nav1.7 cloned from other species can also be used, alone or in combination with various beta subunits, gamma subunits or chaperones.
Cell maintenance: Unless otherwise noted, cell culture reagents were purchased from Mediatech of Herndon, Va. The recombinant Nav1.7/HEK293 cells were routinely cultured in growth medium consisting of Dulbecco's […] containing 10% fetal bovine serum (FBS, Hyclone, Thermo Fisher Scientific, Logan, Utah), 100 U/mL penicillin, […], 2-4 mM L-glutamine, and […]. For natural, non-recombinant cell lines, the selective antibiotic was omitted, and additional media formulations can be applied as needed.
The intensity of this emission, but not the wavelength range, is increased when the dye is exposed to Na^+ ions, which it can bind with partial selectivity. Cells expressing Nav1.7 or other sodium channels were loaded with the CoroNa™ Green dye immediately in advance of the fluorescence assay, and then, after agonist stimulation, the mobilization of Na^+ ions was detected as the Na^+ ions flowed from the extracellular fluid into the cytoplasm through the activated sodium channel pores. The dye was stored in the dark as a lyophilized powder, and then an aliquot was dissolved immediately before the cell loading procedure, according to the instructions of the manufacturer to a stock concentration of 10 mM in DMSO. It was then diluted in the assay buffer to a 4× concentrated working solution, so that the final concentration of dye in the cell loading buffer was 5 μM.
These scorpion toxins inhibit the fast inactivation of their cognate target channels. Stock solutions of the agonists were prepared to 40 mM in DMSO (veratridine) and 1 mg/mL in dH2O (scorpion venom), and then diluted to make a 4× or 2× stock (depending on the particular assay) in assay buffer, the final concentration being 100 μM (veratridine) and 10 μg/mL (scorpion venom). Both of the agonists were purchased from Sigma Aldrich, St. Louis, Mo.
Test Compounds: Test compounds were dissolved in DMSO to yield 10 mM stock solutions. […] If a particular test article appeared to be especially potent, then the concentration curve was adjusted, e.g., to 10-fold lower concentrations, in order to perform the dose-response in a more relevant concentration range. Compound dilutions were added during the dye-loading and pre-stimulation step, and then again during the fluorescence assay, early in the kinetic read.
Data Analysis: The data were analyzed according to methods known to those skilled in the art or using the GraphPad® Prism 4.0 Program (available from GraphPad Software, San Diego, Calif.) to determine the IC50 value for the test article. At least one standard reference compound was evaluated during each experiment.
FLIPR® or FLIPR^TETRA® sodium dye assay with KCl and test article pre-incubation: Cells were prepared by plating the recombinant HEK293 cells or other host cells expressing either recombinant or non-recombinant, native, Nav1.7 alpha subunit, alone or in combination with various beta and gamma subunits at a density of ˜40,000 cells/well into a 96-well black, clear-bottom, PDL-coated plate. The assay can be adapted to 384-well or 1,536-well format, if desired, using proportionately less cells and media. […] For counter-screens of other voltage-gated sodium channels, the procedure was very similar, though optimal densities of cells, media and subsequent assay components can be fine-tuned for the particular cell line or isoform.

[2] = molecular target: hNav1.7 (Homo sapiens (Human), UniProt Q15858); assay: Electrophysiology (EP) assay, whole-cell patch clamp; assay type: cell-based; settings: whole-cell patch clamp, hNav1.7 expressing HEK-293 cells; read-out: EP Nav1.7 Ki
Protocol: Cells: The hNav1.7 expressing HEK-293 cells were plated on 35 mm culture dishes pre-coated with poly-D-lysine in standard DMEM culture media (Mediatech, Inc., Herndon, Va.) and incubated in a 5% CO2 incubator at 37° C. Cultured cells were used approximately 12-48 hours after plating.
Electrophysiology: On the day of experimentation, the 35 mm dish was placed on the stage of an inverted microscope equipped with a perfusion system that continuously perfuses the culture dish with fresh recording media. A gravity driven superfusion system was used to apply test solutions directly to the cell under evaluation. This system consists of an array of glass pipette glass connected to a motorized horizontal translator. The outlet of the shooter was positioned approximately 100 μm from the cell of interest.
Gigaseals were formed and the whole-cell configuration was established in voltage clamp mode, and membrane currents generated by hNav1.7 were recorded in gap-free mode. […] Signals were sampled at 50 kHz and low pass filtered at 3 kHz.
The voltage clamp protocol to examine hNav1.7 currents was as follows. First, the standard current-voltage relationship was tested by pulsing the cell from the holding voltage (Vh) of −120 mV by a series of 5 msec long square-shaped test pulses incrementing in +10 mV steps over the membrane voltage range of −90 mV to +60 mV at the pace of stimulation of 0.5 Hz. This procedure determines the voltage that elicits the maximal current (Vmax). […] This procedure determines the voltage of full inactivation (Vfull). Third, the cell was repeatedly stimulated with the following protocol, first in the absence of the test compound then in its presence. The protocol consisted of depolarizing the cell from the holding potential of −120 mV to the Vfull value for 4.5 seconds then repolarizing the cell to the holding potential for 10 ms before applying the test pulse to the Vmax for 5 ms. The amount of inhibition produced by the test compound was determined by comparing the current amplitude elicited by the test pulse in the absence and presence of the compound.
Vehicle solution used to establish base line was also contacting 0.3% DMSO.
Data analysis: Data was analyzed off-line using Clampfit software (pClamp, v. 8; Axon Instruments) and graphed using GraphPad Prizm (v. 4.0) software.

[3] = test system: spinal nerve ligation (SNL; Chung model of neuropathic pain); assay: Mechanical hyperalgesia (paw withdrawal threshold) in the Chung spinal nerve ligation model; assay type: in vivo; settings: rats, intraperitoneal (i.p.) administration, from 1 to 3 hours
Protocol: Test Animals: Each experiment uses rats weighing between 200-260 g at the start of the experiment. The rats are group-housed and have free access to food and water at all times, except prior to oral administration of a test compound when food is removed for 16 hours before dosing. A control group acts as a comparison to rats treated with a compound of Formulae I-XX. The control group is administered the carrier as used for the test compound. The volume of carrier administered to the control group is the same as the volume of carrier and test compound administered to the test group.
In the Chung model, the spinal nerve ligation model of neuropathic pain was used to produce mechanical hyperalgesia, thermal hyperalgesia and tactile allodynia in rats. […] The animals were assessed for response to noxious mechanical stimuli by determining PWT, as described below, prior to surgery (baseline), then immediately prior to and 1, 3, and 5 hours after being administered a compound of Formulae I-XX for the left rear paw of the animal. The animals can also be assessed for response to noxious thermal stimuli or for tactile allodynia, as described below. […]
Mechanical Hyperalgesia: Sensitivity to noxious mechanical stimuli can be measured in animals using the paw pressure test to assess mechanical hyperalgesia. […] PWT is determined once for each rat at each time point. […]

Chain of human Nav1.7 (Q15858 other isoform, or with tags, fused parts or gaps): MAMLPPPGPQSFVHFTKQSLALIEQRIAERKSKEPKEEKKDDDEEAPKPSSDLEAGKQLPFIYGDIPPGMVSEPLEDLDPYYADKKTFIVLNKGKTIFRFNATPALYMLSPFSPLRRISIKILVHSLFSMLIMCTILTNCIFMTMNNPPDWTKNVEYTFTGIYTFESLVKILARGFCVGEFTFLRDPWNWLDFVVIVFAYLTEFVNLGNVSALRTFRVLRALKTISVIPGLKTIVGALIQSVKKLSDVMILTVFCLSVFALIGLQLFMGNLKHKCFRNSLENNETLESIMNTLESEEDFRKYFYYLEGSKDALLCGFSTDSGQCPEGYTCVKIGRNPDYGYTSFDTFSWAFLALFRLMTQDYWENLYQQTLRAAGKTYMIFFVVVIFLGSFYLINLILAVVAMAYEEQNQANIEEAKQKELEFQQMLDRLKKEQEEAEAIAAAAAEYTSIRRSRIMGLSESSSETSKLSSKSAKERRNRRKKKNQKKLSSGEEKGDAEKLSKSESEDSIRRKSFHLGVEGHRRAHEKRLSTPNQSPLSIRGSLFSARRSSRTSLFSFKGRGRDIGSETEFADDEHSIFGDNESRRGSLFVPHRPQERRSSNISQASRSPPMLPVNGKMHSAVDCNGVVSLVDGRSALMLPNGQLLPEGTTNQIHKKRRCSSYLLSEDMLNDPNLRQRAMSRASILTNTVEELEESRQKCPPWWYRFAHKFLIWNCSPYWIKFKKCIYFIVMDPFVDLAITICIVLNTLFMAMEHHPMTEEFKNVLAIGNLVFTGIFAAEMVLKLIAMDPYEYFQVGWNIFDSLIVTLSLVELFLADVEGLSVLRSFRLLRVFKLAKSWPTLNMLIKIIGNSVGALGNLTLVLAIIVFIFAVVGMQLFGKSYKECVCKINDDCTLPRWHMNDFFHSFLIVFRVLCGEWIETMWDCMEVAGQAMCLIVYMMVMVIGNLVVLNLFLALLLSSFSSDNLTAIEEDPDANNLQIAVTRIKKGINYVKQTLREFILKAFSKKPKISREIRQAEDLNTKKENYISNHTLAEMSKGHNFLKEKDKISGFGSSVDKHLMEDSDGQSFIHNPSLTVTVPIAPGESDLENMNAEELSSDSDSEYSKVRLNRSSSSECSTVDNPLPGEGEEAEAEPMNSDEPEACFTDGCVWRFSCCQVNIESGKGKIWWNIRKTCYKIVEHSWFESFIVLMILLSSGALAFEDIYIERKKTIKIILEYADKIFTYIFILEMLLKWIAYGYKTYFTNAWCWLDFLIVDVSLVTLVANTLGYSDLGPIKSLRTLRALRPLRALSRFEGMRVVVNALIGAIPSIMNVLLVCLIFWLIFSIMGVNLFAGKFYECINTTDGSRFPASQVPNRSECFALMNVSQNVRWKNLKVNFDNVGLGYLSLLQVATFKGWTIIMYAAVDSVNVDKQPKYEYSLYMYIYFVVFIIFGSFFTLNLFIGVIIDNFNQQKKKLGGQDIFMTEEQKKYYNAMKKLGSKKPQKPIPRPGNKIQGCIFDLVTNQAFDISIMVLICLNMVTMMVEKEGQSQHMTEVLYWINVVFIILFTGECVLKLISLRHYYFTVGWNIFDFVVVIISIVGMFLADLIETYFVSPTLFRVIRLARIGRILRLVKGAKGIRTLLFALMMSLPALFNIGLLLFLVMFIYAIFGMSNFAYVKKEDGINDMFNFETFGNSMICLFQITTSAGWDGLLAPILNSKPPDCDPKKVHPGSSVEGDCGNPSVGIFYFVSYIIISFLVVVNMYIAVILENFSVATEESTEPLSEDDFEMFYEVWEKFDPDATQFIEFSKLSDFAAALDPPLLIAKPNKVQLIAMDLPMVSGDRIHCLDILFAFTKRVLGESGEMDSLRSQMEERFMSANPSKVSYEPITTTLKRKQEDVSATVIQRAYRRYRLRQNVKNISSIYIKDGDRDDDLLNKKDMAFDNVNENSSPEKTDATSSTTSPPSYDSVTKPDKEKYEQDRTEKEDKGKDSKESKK
Chain of hNav1.7 (Q15858 other isoform, or with tags, fused parts or gaps): as above

| Structure (SMILES) | IC50 [1] [µM] | Ki [2] [nM] | reversal of mechanical hyperalgesia [3] |
| --- | --- | --- | --- |
| N#Cc1cc(Oc2ccc(-n3cc(C[C@H](N)CO)c4ccccc43)cc2)ccc1C(F)(F)F [Compound 47, (S)-5-{4-[3-(2-Amino-3-hydroxypropyl)-1H-indol-1-yl]phenoxy}-2-(trifluoromethyl)benzonitrile] | 0.213 ± 0.052 | 160 | 10%-25% |
| N#Cc1cc(Oc2ccc(-n3cc(C(O)C(N)=O)c4ccccc43)cc2)ccc1C(F)(F)F (stereo not drawn) [Compound 60, 2-(1-(4-(3-Cyano-4-(trifluoromethyl)phenoxy)phenyl)-1H-indol-3-yl)-2-hydroxyacetamide] | 0.224 ± 0.038 | 400 | 10%-25% |
